Reference: patent US20180318311A1, “TRICYCLIC 2-QUINOLINONES AS ANTIBACTERIALS” (priority 2017, published 2018)
In brackets after ≈: the same amount, converted by molar mass. Counter-ions that a name gives are not always drawn. Like-named read-outs stand apart in the source and are kept apart here.

What was measured:
Assay type in all cases: cell-based
[1] = test system: S. aureus NB01080 fluoroquinolone-resistant clinical isolate; test: MIC by broth microdilution, S. aureus NB01080; details: Staphylococcus aureus, CAMHB, 35° C., 20 hours, read-out: Antibacterial activity (MIC) NB01080
How it was run: (§1)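 MIC in μg/mL taken as the lowest concentration with no visible growth, checked by 600 nm reading after 20 h at 35°C, ambient air. Strains tested per CLSI microdilution in cation-adjusted Mueller-Hinton broth at about 5×10^5 CFU/mL, compounds as two-fold series, 1% DMSO final.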

[2] = test system: E. coli ATCC 25922 (NB27001); test: MIC by broth microdilution, E. coli NB27001; details: Escherichia coli, ATCC25922, CAMHB, 35° C., 20 hours, read-out: Antibacterial activity (MIC) NB27001
How it was run: as §1

[3] = test system: E. faecalis ATCC 29212 (NB04001); test: MIC by broth microdilution, E. faecalis NB04001; details: Enterococcus faecalis, ATCC29212, CAMHB, 35° C., 20 hours, read-out: Antibacterial activity (MIC) NB04001
How it was run: as §1

[4] = test system: S. aureus ATCC 49951 (NB01006); test: MIC by broth microdilution, S. aureus NB01006; details: Staphylococcus aureus, ATCC49951, CAMHB, 35° C., 20 hours, read-out: Antibacterial activity (MIC) NB01006
How it was run: as §1

[5] = test system: S. aureus NB01006-AVR005, gyrA (S84L), grlA (580F) and grlB (E471K); test: microbe, parasite or virus in culture; details: Staphylococcus aureus, 20 h, read-out: Antibacterial activity (MIC) NB01006-AVR005
How it was run: as §1

[6] = test system: P. aeruginosa NB52019, wild-type PAO1 strain; test: MIC by broth microdilution, P. aeruginosa NB52019; details: Pseudomonas aeruginosa, CAMHB, 35° C., 20 hours, read-out: Antibacterial activity (MIC) NB52019
How it was run: as §1

[7] = test system: S. pneumoniae ATCC 25922 (NB07001); test: MIC by broth microdilution, S. pneumoniae NB07001; details: Streptococcus pneumoniae, read-out: Antibacterial activity (MIC) NB07001
How it was run: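 CAMHB, ~5×10^5 CFU/mL, 2-fold serial dilutions (final DMSO 1%), 35° C, ambient air, 20 h. Read OD600 plus visual check; MIC = lowest conc. with no visible growth, μg/mL.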

[8] = ATCC25922, S. pneumoniae, CAMHB supplemented with 5% lysed horse blood, 35° C., 20 hours

| SMILES | MIC [1] | MIC [2] | MIC [3] | MIC [4] | MIC [5] | MIC [6] | MIC ([7]; ATCC25922, 20 h) | MIC [7, 8] |
| --- | --- | --- | --- | --- | --- | --- | --- | --- |
| C[C@@H]1CN(c2c(F)cc3cc(C(=O)O)c(=O)n4c3c2OC[C@@H]4C)C[C@@]1(C)CN [Example 1.58, (S)-10-((3R,4S)-3-(aminomethyl)-3,4-dimethylpyrrolidin-1-yl)-9-fluoro-3-methyl-5-oxo-2,3-dihydro-5H-[1,4]oxazino[2,3,4-ij]quinoline-6-carboxylic acid] | 1 to 32 µg/mL (≈ 2.57 to 82.2 µM) | 1 to 32 µg/mL (≈ 2.57 to 82.2 µM) | 1 to 32 µg/mL (≈ 2.57 to 82.2 µM) | < 1 µg/mL | 1 to 32 µg/mL (≈ 2.57 to 82.2 µM) | > 32 µg/mL | 1 to 32 µg/mL (≈ 2.57 to 82.2 µM) |  |
| C[C@H]1COc2c(N3CCC4(CCCN4C)CC3)c(F)cc3cc(C(=O)O)c(=O)n1c23 [Example 1.57, (S)-9-fluoro-3-methyl-10-(1-methyl-1,8-diazaspiro[4.5]decan-8-yl)-5-oxo-2,3-dihydro-5H-[1,4]oxazino[2,3,4-ij]quinoline-6-carboxylic acid] | > 32 µg/mL | 1 to 32 µg/mL (≈ 2.41 to 77 µM) | > 32 µg/mL | > 32 µg/mL | > 32 µg/mL | > 32 µg/mL | > 32 µg/mL |  |
| C[C@H]1COc2c(N3C[C@H]4[C@@H](C3)S(=O)(=O)C[C@@H]4N)c(F)cc3cc(C(=O)O)c(=O)n1c23 [Example 1.51, (S)-10-((3R,3aR,6aS)-3-amino-1,1-dioxidohexahydro-5H-thieno[2,3-c]pyrrol-5-yl)-9-fluoro-3-methyl-5-oxo-2,3-dihydro-5H-[1,4]oxazino[2,3,4-ij]quinoline-6-carboxylic acid] | > 32 µg/mL | > 32 µg/mL | > 32 µg/mL | > 32 µg/mL | > 32 µg/mL | > 32 µg/mL | > 32 µg/mL |  |
| C[C@H]1COc2c(N3CC4=C(CNC4)C3)c(F)cc3cc(C(=O)O)c(=O)n1c23 [Example 1.59, (S)-9-fluoro-3-methyl-5-oxo-10-(3,4,5,6-tetrahydropyrrolo[3,4-c]pyrrol-2(1H)-yl)-2,3-dihydro-5H-[1,4]oxazino[2,3,4-ij]quinoline-6-carboxylic acid] | 1 to 32 µg/mL (≈ 2.69 to 86.2 µM) | 1 to 32 µg/mL (≈ 2.69 to 86.2 µM) | > 32 µg/mL | 1 to 32 µg/mL (≈ 2.69 to 86.2 µM) | > 32 µg/mL | > 32 µg/mL | 1 to 32 µg/mL (≈ 2.69 to 86.2 µM) |  |
| C[C@H]1COc2c(N3CCC(C4CC4N)CC3)c(F)cc3cc(C(=O)O)c(=O)n1c23 (mixture of isomers) [Example 1.64, (3S)-10-(4-(2-aminocyclopropyl)piperidin-1-yl)-9-fluoro-3-methyl-5-oxo-2,3-dihydro-5H-[1,4]oxazino[2,3,4-ij]quinoline-6-carboxylic acid] | > 32 µg/mL | > 32 µg/mL | 1 to 32 µg/mL | 1 to 32 µg/mL | > 32 µg/mL | > 32 µg/mL | 1 to 32 µg/mL |  |
| C[C@H]1COc2c(N3CC[C@@H](C4(N)CC4)C3)c(F)c(F)c3cc(C(=O)O)c(=O)n1c23 [Example 13.1, (S)-10-((R)-3-(1-aminocyclopropyl)pyrrolidin-1-yl)-8,9-difluoro-3-methyl-5-oxo-2,3-dihydro-5H-[1,4]oxazino[2,3,4-ij]quinoline-6-carboxylic acid hydrochloride salt] | < 1 µg/mL | < 1 µg/mL | < 1 µg/mL | < 1 µg/mL | < 1 µg/mL | 1 to 32 µg/mL | < 1 µg/mL |  |
| CCC(N)C1CCN(c2c(F)cc3cc(C(=O)O)c(=O)n4c3c2OC[C@@H]4C)C1 (single isomer, unassigned) [Example 1.45] | < 1 µg/mL | 1 to 32 µg/mL (≈ 2.57 to 82.2 µM) | < 1 µg/mL | < 1 µg/mL | 1 to 32 µg/mL (≈ 2.57 to 82.2 µM) | > 32 µg/mL | < 1 µg/mL |  |
| NC1([C@@H]2CCN(c3c(F)cc4cc(C(=O)O)c(=O)n5c4c3OCC5)C2)CC1 [Example 1.20, (R)-10-(3-(1-aminocyclopropyl)pyrrolidin-1-yl)-9-fluoro-5-oxo-2,3-dihydro-5H-[1,4]oxazino[2,3,4-ij]quinoline-6-carboxylic acid] | 1 to 32 µg/mL (≈ 2.68 to 85.7 µM) | > 32 µg/mL | 1 to 32 µg/mL (≈ 2.68 to 85.7 µM) | 1 to 32 µg/mL (≈ 2.68 to 85.7 µM) | > 32 µg/mL | > 32 µg/mL | 1 to 32 µg/mL (≈ 2.68 to 85.7 µM) |  |
| C[C@H]1COc2c(N3CC[C@@H](C4(N)CC4)C3)cc(C#N)c3cc(C(=O)O)c(=O)n1c23 [Example 21.2, (S)-10-((R)-3-(1-aminocyclopropyl)pyrrolidin-1-yl)-8-cyano-3-methyl-5-oxo-2,3-dihydro-5H-[1,4]oxazino[2,3,4-ij]quinoline-6-carboxylic acid] | 1 to 32 µg/mL (≈ 2.54 to 81.1 µM) | 1 to 32 µg/mL (≈ 2.54 to 81.1 µM) | 1 to 32 µg/mL (≈ 2.54 to 81.1 µM) | < 1 µg/mL | 1 to 32 µg/mL (≈ 2.54 to 81.1 µM) | > 32 µg/mL | < 1 µg/mL |  |
| C[C@H]1COc2c(N3CC[C@H](C4(N)CC4)C3)c(F)cc3cc(C(=O)O)c(=O)n1c23 [Example 1.35, (S)-10-((S)-3-(1-aminocyclopropyl)pyrrolidin-1-yl)-9-fluoro-3-methyl-5-oxo-2,3-dihydro-5H-[1,4]oxazino[2,3,4-ij]quinoline-6-carboxylic acid] | 1 to 32 µg/mL (≈ 2.58 to 82.6 µM) | 1 to 32 µg/mL (≈ 2.58 to 82.6 µM) | 1 to 32 µg/mL (≈ 2.58 to 82.6 µM) | 1 to 32 µg/mL (≈ 2.58 to 82.6 µM) | > 32 µg/mL | > 32 µg/mL | 1 to 32 µg/mL (≈ 2.58 to 82.6 µM) |  |
| C[C@H](N)[C@@H]1CCN(c2c(F)c(F)c3cc(C(=O)O)c(=O)n4c3c2OC[C@@H]4C)C1 [Example 13.2, (S)-10-((R)-3-((S)-1-aminoethyl)pyrrolidin-1-yl)-8,9-difluoro-3-methyl-5-oxo-2,3-dihydro-5H-[1,4]oxazino[2,3,4-ij]quinoline-6-carboxylic acid] | < 1 µg/mL | < 1 µg/mL | < 1 µg/mL | < 1 µg/mL | < 1 µg/mL | 1 to 32 µg/mL (≈ 2.54 to 81.3 µM) | < 1 µg/mL |  |
| C[C@H]1COc2c(N3C4CCC3CC4)c(F)cc3cc(C(=O)O)c(=O)n1c23 [Example 1.61, (S)-10-(7-azabicyclo[2.2.1]heptan-7-yl)-9-fluoro-3-methyl-5-oxo-2,3-dihydro-5H-[1,4]oxazino[2,3,4-ij]quinoline-6-carboxylic acid] | > 32 µg/mL | > 32 µg/mL | > 32 µg/mL | > 32 µg/mL | > 32 µg/mL | > 32 µg/mL |  | > 32 µg/mL |
| C[C@H]1COc2c(N3CCN(C)CC3)c(F)c(F)c3cc(C(=O)O)c(=O)n1c23 [Example 13.3] | > 32 µg/mL | 1 to 32 µg/mL (≈ 2.64 to 84.4 µM) | > 32 µg/mL | 1 to 32 µg/mL (≈ 2.64 to 84.4 µM) | > 32 µg/mL | > 32 µg/mL |  | > 32 µg/mL |
| C[C@H]1COc2c(N3CCN4C5CCC(C5)C4C3)c(F)cc3cc(C(=O)O)c(=O)n1c23 (stereo partly drawn) [Example 1.63, (3S)-9-fluoro-3-methyl-10-(octahydro-2H-6,9-methanopyrido[1,2-a]pyrazin-2-yl)-5-oxo-2,3-dihydro-5H-[1,4]oxazino[2,3,4-ij]quinoline-6-carboxylic acid] | > 32 µg/mL | 1 to 32 µg/mL (≈ 2.42 to 77.4 µM) | > 32 µg/mL | > 32 µg/mL | > 32 µg/mL | > 32 µg/mL |  | > 32 µg/mL |
| C[C@H]1COc2c(N3CC(CO)C(N(C)C)C3)c(F)cc3cc(C(=O)O)c(=O)n1c23 (single isomer, unassigned) [Example 1.78] | > 32 µg/mL | 1 to 32 µg/mL (≈ 2.47 to 78.9 µM) | > 32 µg/mL | 1 to 32 µg/mL (≈ 2.47 to 78.9 µM) | > 32 µg/mL | > 32 µg/mL | 1 to 32 µg/mL (≈ 2.47 to 78.9 µM) |  |
| C[C@H](N)[C@@H]1CCN(c2cc(F)c3cc(C(=O)O)c(=O)n4c3c2OC[C@@H]4C)C1 [Example 12.2, (S)-10-((R)-3-((S)-1-aminoethyl)pyrrolidin-1-yl)-8-fluoro-3-methyl-5-oxo-2,3-dihydro-5H-[1,4]oxazino[2,3,4-ij]quinoline-6-carboxylic acid] | 1 to 32 µg/mL (≈ 2.66 to 85.2 µM) | 1 to 32 µg/mL (≈ 2.66 to 85.2 µM) | < 1 µg/mL | < 1 µg/mL | 1 to 32 µg/mL (≈ 2.66 to 85.2 µM) | 1 to 32 µg/mL (≈ 2.66 to 85.2 µM) | < 1 µg/mL |  |
| C[C@H]1COc2c(N3CCCC4(CCNC4)C3)c(F)cc3cc(C(=O)O)c(=O)n1c23 (mixture of isomers) [Example 1.71, (3S)-9-fluoro-3-methyl-5-oxo-10-(2,7-diazaspiro[4.5]decan-7-yl)-2,3-dihydro-5H-[1,4]oxazino[2,3,4-ij]quinoline-6-carboxylic acid] | > 32 µg/mL | > 32 µg/mL | > 32 µg/mL | > 32 µg/mL | > 32 µg/mL | > 32 µg/mL | > 32 µg/mL |  |
| C[C@H]1COc2c(N3CC[C@@H]([C@@H](N)C(F)F)C3)c(F)cc3cc(C(=O)O)c(=O)n1c23 [Example 1.53, (S)-10-((R)-3-((R)-1-amino-2,2-difluoroethyl)pyrrolidin-1-yl)-9-fluoro-3-methyl-5-oxo-2,3-dihydro-5H-[1,4]oxazino[2,3,4-ij]quinoline-6-carboxylic acid] | < 1 µg/mL | 1 to 32 µg/mL (≈ 2.43 to 77.8 µM) | < 1 µg/mL | < 1 µg/mL | 1 to 32 µg/mL (≈ 2.43 to 77.8 µM) | > 32 µg/mL | < 1 µg/mL |  |
